This note sets out measurements from patent publication US8859608B2, “Spiro amino compounds suitable for the treatment of inter alia sleep disorders and drug addiction” (Rottapharm Biotech S.R.L., priority 2009, dated 2014).

Data set [1] in a line: Brain penetration in rats 1 hour after intravenous treatment. The class given is in vivo. Conditions: male, Han Wistar, rat, one hour after intravenous administration, 1 mg/kg. As to the method: (§1) The pharmacokinetics of compound 4 were studied in male Han Wistar rats. The rats were treated intravenously and orally (n=3 for each dose route) with a compound 2 solution at the dose of 1 mg/kg, formulated in Lactic acid 150 mM pH 4.5 in water, 5% DMSO, 10% TWEEN 80. The rats were fitted with a jugular cannula for serial sampling, a full profile was acquired for each rat. Another group of rats (n=3) was treated intravenously and sacrificed after 1 hour harvesting arterial blood and brain to assess brain penetration. Plasma and brain extracts were quantitatively analyzed using a specific and sensitive LC-MS/MS bioanalytical method. Inter-individual variations between the three rats in each group were limited (CV for pharmacokinetic parameters was below 30%).

For another data set, the target named is T1, human OX2 receptor (Homo sapiens, UniProt O43614).
T1 sequence (O43614 1-444): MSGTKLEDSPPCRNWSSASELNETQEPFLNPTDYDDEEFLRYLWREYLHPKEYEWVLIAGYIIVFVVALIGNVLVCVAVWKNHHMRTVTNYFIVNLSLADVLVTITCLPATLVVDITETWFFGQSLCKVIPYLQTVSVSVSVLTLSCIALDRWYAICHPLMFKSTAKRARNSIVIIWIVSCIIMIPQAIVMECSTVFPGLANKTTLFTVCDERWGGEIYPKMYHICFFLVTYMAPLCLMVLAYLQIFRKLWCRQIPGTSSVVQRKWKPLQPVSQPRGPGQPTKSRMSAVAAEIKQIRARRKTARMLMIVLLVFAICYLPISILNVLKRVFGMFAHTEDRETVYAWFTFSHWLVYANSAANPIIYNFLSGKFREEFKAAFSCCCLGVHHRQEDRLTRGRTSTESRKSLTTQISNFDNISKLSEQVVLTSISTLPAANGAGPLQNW
The data set is described as follows: FLIPR measurement of intracellular calcium, antagonistic activity at OX2.

In a further data set the target is T2, human OX1 receptor (Homo sapiens, UniProt O43613).
T2 sequence (O43613 1-425): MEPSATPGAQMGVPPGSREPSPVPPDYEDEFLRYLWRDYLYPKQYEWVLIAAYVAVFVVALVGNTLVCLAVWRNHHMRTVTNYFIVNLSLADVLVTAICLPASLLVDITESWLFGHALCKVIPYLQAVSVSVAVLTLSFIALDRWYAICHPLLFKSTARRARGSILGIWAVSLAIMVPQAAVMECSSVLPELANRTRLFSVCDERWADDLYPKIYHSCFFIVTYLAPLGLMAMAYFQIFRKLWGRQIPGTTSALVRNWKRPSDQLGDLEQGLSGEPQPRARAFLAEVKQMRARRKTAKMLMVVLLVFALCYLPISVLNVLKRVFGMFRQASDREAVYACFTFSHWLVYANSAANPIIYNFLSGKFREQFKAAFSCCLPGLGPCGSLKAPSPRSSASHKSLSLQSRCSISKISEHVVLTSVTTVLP
The data set is described as follows: FLIPR measurement of intracellular calcium, antagonistic activity at OX1.

Data set [2] can be described thus: Pharmacokinetics in male Han Wistar rats, intravenous and oral. The format is in vivo. As to conditions: 1 mg/kg. As for the experimental part:
as §1

Where [3] appears, read: male, Han Wistar, plasma, rat, intravenous.

The structures appear in SMILES notation. Like-named read-outs stand apart in the source and are kept apart here. A value given as a limit tells only on which side of the number the result lay.

Method for human OX1 receptor: (§2) Thus the plate was loaded with the calcium dye (Fluo-4NW/probenecid in HBSS, Hepes 20 mM, pH 7,4; Invitrogen) at 37° C. for 60 min. Afterward the temperature was equilibrated at 22° C. for 15 min and the [Ca2+]i measured directly on the plate by using a fluorescent plate reader (CeliLux Perkin Elmer).
(§3) After 5 min CHO cells were activated with orexin-A, 3 nM while HEK-293 cells were activated with orexin-B, 10 nM.
(§4) The antagonistic activity has been expressed as pKb (co-logarithm of the apparent dissociation constant calculated by using the modified Cheng Prusoff equation).
Method for human OX2 receptor: as §2, §3, §4

Turning to `Cc1cccc(NCC2CC3(CCN2C(=O)c2nc(C)sc2-c2ccccc2)CC3)n1` (single isomer, unassigned) [Compound 2, (2-methyl-5-phenylthiazol-4-yl)(5-((6-methylpyridin-2-ylamino)methyl)-6-azaspiro[2.5]octan-6-yl)methanone], the concentration at 1 h turned out to be 126 ng/mL in data set [1] (arterial plasma, read-out: average arterial plasmatic level) and 83 ng/g in data set [1] (brain, read-out: average total brain level). In addition, in data set [1] (brain/plasma, read-out: Brain/plasma concentrations ratio), the Kp at 1 h is 0.66. The antagonist equilibrium constant (Kb) on human OX2 receptor is over 10000 nM; at human OX1 receptor (pKb OX1, CHO cells with human recombinant OX1, activated with orexin-A 3 nM, 1 nM-1 μM range, modified Cheng Prusoff), 6.31 nM. Also, on human OX1 receptor (OX1 versus OX2, from the pKb table), the “selectivity against the OX1 receptor” value is listed as “highly selective”. For the same molecule, in data set [2] (intravenous), the “clearance as share of rat liver blood flow” value is listed as 40%. For the same molecule, the exposure (AUC) is about 740 ng·h/mL in data set [2] (setting [3]) and about 360 ng·h/mL in data set [2] (male, Han Wistar, plasma, rat, oral). The molecule also showed a clearance in data set [2] (setting [3]) of about 5.33 mL/min. Also, the Vd in data set [2] (male, Han Wistar, plasma, rat, intravenous, read-out: average volume of distribution (Vss)) amounted to 0.33 L. Moreover, the bioavailability in data set [2] (male, Han Wistar, plasma, rat, oral solution, read-out: absolute oral bioavailability) worked out at 50%. For the same molecule, the “oral AUC as share of AUC after intravenous administration” value in data set [2] (rat) is “about 50%”. In data set [2] (rat, oral), the “time of maximum concentration” value is at most 30 min.
